In ChEMBL document CHEMBL1201862, “PubChem BioAssay data set” (2004):
One block for each compound: values may come before it. The source made the active and inactive calls.

How the values were obtained:
Exodeoxyribonuclease V = Exodeoxyribonuclease V (Escherichia coli (strain K12), UniProt P04993+P07648+P08394); assay: E. coli RecBCD inhibitors, dose response, counter-screen for AddAB inhibitor project, absorbance, V66 E. coli, mutant T4 phage (AID 492957); assay type: functional, cell-based, Escherichia coli str. K-12 substr. MG1655
[1] = Counterscreen for AddAB inhibitors: absorbance-based bacterial cell-based high throughput dose response assay for inhibitors of bacterial viability. [Related pubchem assays (depositor defined):AID435030, AID449728, AID449731, AID488942, AID488955, AID488956]; assay type: functional
Cytochrome P450 2D6 [2] = target: T1, Cytochrome P450 2D6 (Homo sapiens, UniProt P10635);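 further: CYP2D6 member of a cytochrome P450 panel assay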
T1 sequence (P10635 whole entry): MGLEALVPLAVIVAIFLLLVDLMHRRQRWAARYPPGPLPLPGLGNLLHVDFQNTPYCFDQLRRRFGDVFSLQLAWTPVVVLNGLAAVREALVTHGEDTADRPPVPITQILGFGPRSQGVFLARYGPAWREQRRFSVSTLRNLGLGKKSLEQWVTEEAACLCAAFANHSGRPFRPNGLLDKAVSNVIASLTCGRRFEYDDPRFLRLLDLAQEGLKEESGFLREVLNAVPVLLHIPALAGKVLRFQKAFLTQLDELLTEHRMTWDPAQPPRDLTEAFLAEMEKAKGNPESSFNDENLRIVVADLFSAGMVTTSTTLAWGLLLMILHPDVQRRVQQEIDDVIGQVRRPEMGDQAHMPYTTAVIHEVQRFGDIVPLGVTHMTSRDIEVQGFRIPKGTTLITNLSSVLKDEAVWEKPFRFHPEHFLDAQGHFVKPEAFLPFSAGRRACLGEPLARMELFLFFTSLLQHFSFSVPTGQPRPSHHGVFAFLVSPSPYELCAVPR

Troponin, cardiac muscle = Troponin, cardiac muscle (Homo sapiens, UniProt P19429+P45379+P63316); assay: Fluorescence-based biochemical high throughput dose response assay for activators of the calcium sensitivity of cardiac Regulated Thin Filaments (RTF). [Related pubchem assays (depositor defined):AID493008, AID493018, AID504382, AID504383]; assay type: protein-complex assay
[3] = target: Melanin-concentrating hormone receptor 1 (Homo sapiens, UniProt Q99705); assay: Late-stage fluorescence-based counterscreen for antagonists of the G-protein coupled receptor 7 (GPR7): cell-based dose response assay to identify antagonists of the melanin-concentrating hormone receptor 1 (MCHR1). [Related pubchem assays (depositor defined):AID1861, AID1880, AID1952, AID2148, AID2251, AID2257, AID485339]; assay type: functional;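 further: stimulated with 30 nM MCH peptide agonist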
Chain of Melanin-concentrating hormone receptor 1 (Q99705 whole entry): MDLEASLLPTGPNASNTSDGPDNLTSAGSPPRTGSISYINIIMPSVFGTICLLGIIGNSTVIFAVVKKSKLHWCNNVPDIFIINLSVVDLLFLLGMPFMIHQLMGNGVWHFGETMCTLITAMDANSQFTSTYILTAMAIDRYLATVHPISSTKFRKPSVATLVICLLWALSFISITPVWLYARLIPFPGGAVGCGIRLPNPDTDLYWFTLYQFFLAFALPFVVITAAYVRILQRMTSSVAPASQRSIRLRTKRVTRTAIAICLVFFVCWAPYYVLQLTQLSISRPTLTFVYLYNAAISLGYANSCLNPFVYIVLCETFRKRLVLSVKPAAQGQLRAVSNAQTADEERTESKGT

[4] = target: T2, Neuropeptides B/W receptor type 1 (Homo sapiens, UniProt P48145); assay: GPR7 antagonist potency, late-stage follow-up, cell-based, fluorescence, dose response (AID 463251); assay type: functional
T2 sequence (P48145 whole entry): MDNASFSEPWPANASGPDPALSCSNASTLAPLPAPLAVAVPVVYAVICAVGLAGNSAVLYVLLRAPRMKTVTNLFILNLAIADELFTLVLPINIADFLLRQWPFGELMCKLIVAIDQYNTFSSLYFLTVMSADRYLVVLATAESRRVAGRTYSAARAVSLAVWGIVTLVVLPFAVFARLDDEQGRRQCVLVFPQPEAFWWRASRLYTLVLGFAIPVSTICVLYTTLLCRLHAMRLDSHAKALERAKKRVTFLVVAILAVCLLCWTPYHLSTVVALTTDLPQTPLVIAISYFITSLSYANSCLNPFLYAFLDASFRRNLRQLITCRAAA

[5] = target: T3, Voltage-gated N-type calcium channel alpha-1B subunit/Amyloid beta A4 precursor protein-binding family A member 1 (Homo sapiens, UniProt Q00975+Q02410); assay type: protein assay
T3 sequence (Q00975 whole entry): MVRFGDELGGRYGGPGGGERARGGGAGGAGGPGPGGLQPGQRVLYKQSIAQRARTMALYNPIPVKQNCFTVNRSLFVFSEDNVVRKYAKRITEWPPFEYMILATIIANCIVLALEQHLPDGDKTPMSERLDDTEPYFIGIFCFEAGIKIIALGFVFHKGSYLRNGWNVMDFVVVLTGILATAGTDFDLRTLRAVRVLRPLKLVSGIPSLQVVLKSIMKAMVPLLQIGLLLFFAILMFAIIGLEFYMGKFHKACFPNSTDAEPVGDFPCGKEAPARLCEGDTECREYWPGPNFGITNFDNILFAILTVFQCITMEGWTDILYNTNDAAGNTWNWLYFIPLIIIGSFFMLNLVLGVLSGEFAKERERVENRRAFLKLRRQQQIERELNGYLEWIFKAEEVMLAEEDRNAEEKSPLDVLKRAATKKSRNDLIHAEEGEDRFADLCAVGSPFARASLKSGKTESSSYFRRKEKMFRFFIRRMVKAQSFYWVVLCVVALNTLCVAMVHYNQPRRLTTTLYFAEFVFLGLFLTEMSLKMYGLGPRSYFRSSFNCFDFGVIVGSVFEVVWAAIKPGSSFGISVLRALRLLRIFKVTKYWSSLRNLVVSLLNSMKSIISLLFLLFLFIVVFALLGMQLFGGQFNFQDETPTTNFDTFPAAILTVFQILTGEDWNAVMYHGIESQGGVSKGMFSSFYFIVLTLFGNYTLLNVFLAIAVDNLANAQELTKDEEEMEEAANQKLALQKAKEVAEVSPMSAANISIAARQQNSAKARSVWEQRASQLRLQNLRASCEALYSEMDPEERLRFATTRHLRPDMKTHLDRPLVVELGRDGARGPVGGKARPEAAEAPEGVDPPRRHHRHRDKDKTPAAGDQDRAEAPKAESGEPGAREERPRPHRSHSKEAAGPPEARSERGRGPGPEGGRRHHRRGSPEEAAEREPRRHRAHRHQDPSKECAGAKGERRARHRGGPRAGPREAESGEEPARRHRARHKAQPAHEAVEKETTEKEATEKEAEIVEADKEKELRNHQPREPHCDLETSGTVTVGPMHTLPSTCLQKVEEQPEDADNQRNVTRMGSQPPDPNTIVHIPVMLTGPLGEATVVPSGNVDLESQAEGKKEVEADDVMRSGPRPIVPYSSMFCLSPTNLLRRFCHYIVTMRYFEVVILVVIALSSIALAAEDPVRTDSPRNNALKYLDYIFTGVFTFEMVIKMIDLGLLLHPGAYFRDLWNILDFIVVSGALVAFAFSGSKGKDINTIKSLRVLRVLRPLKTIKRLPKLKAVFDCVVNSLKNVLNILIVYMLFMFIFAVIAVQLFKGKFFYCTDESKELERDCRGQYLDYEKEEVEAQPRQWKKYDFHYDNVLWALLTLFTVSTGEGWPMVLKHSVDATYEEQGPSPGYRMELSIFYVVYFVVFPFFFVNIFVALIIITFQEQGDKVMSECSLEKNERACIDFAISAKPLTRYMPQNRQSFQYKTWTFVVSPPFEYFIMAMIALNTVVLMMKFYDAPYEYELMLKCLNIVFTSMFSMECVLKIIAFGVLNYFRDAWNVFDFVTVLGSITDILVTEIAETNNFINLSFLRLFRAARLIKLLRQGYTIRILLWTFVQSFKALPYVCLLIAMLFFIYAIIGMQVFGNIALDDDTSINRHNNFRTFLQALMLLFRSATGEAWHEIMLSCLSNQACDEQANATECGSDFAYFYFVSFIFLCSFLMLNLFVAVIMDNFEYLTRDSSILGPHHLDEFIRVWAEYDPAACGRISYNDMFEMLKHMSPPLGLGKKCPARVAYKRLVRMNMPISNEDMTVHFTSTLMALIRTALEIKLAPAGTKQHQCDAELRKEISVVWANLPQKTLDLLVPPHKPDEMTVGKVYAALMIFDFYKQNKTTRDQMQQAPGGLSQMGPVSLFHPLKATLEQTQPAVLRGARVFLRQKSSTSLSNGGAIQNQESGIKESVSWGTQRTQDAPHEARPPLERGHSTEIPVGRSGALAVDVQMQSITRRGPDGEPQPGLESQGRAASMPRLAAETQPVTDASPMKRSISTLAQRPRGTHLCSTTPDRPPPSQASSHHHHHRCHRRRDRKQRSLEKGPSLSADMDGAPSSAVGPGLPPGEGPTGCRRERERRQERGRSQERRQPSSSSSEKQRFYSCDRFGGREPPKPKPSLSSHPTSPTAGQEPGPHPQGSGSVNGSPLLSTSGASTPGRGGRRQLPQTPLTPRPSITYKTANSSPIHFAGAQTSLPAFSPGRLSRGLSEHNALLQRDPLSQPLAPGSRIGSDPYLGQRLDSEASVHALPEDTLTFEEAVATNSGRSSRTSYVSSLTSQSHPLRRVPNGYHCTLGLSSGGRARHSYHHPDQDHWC
T3 sequence (Q02410 whole entry): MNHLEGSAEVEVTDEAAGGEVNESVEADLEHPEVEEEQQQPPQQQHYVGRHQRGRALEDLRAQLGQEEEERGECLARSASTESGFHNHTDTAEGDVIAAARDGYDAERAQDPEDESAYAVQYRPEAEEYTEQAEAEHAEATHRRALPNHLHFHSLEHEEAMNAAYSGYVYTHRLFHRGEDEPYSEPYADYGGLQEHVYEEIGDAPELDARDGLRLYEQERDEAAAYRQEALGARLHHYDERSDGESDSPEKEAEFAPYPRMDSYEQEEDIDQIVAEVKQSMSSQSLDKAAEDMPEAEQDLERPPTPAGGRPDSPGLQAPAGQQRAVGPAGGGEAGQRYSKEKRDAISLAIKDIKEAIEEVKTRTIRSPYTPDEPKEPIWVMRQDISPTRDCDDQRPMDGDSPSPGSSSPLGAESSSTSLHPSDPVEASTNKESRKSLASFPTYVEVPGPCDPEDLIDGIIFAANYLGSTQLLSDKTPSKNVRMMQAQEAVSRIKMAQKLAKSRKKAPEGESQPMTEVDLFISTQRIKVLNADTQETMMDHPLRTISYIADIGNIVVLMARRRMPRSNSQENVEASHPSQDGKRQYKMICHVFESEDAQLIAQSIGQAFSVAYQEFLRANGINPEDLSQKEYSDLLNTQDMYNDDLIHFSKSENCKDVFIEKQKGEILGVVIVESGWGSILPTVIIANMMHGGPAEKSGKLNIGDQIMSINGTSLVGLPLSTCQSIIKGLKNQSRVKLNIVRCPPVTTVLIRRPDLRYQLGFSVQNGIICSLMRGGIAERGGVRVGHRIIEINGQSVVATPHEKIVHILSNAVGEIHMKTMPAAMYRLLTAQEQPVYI

[6] = target: T4, Mannose-6-phosphate isomerase (Homo sapiens, UniProt P34949); assay: inhibitors of human PMI, primary screen, biochemical, fluorescence intensity, coupled assay (AID 1209)
T4 sequence (P34949 whole entry): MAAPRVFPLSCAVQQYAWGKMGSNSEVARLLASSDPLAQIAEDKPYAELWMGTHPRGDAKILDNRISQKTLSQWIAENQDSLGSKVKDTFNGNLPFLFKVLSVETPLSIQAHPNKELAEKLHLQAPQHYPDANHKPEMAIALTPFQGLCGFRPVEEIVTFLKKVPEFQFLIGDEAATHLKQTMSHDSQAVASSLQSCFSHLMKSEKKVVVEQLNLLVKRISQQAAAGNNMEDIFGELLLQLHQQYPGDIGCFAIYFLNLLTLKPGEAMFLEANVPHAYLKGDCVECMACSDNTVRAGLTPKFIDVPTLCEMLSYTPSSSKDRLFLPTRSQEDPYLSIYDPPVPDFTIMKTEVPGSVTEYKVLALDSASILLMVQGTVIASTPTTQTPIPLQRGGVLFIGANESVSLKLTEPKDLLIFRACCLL

[7] = target: T3, Voltage-gated N-type calcium channel alpha-1B subunit/Amyloid beta A4 precursor protein-binding family A member 1; assay type: protein assay; remark: listed apart in the source
[8] = target: DNA dC->dU-editing enzyme APOBEC-3A (Homo sapiens, UniProt P31941); assay: APOBEC3A DNA deaminase inhibitors, dose response, biochemical (AID 504722); assay type: functional
Chain of DNA dC->dU-editing enzyme APOBEC-3A (P31941 whole entry): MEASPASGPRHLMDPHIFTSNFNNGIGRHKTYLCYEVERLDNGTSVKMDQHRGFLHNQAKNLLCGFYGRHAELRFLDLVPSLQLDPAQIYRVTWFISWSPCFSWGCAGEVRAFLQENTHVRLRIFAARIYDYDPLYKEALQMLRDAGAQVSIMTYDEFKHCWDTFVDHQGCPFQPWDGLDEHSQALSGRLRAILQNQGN

[9] = target: Eukaryotic translation initiation factor 4E (Mus musculus, UniProt P63073); assay: eIF4E–eIF4G protein interaction inhibitors, dose response, biochemical, TR-FRET (AID 855); assay type: functional;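 further: potency for disrupting eIF4E binding to eIF4GI seen as loss of FRET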
Chain of Eukaryotic translation initiation factor 4E (P63073 whole entry): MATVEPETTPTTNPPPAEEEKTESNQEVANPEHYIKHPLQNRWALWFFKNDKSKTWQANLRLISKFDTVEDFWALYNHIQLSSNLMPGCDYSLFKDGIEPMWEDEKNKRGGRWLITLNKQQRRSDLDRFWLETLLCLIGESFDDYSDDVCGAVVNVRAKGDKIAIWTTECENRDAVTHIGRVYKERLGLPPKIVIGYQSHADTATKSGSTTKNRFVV

[10] = target: DNA dC->dU-editing enzyme APOBEC-3G (Homo sapiens, UniProt Q9HC16); assay: Dose Response confirmation of small molecule APOBEC3G DNA Deaminase Inhibitors via a fluorescence-based single-stranded DNA deaminase assay. [Related pubchem assays (depositor defined):AID493012, AID493028]; assay type: functional
Chain of DNA dC->dU-editing enzyme APOBEC-3G (Q9HC16 whole entry): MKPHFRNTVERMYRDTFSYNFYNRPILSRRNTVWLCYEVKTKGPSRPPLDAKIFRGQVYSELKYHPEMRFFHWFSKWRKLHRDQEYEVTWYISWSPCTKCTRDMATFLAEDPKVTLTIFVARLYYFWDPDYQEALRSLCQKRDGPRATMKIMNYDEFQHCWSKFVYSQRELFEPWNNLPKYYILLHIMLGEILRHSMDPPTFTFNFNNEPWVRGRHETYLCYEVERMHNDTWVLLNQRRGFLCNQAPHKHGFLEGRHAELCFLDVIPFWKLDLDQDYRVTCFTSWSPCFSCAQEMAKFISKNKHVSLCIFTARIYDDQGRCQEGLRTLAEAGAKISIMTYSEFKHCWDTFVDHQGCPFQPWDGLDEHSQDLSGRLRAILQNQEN

Cytochrome P450 2D6 [11] = target: T1, Cytochrome P450 2D6; remark: listed apart in the source
[12] = target: T5, Eukaryotic translation initiation factor 2-alpha kinase 3 (Homo sapiens, UniProt Q9NZJ5); assay: Dose response cell-based high-throughput screening assay to measure PERK inhibition. [Related pubchem assays: 1416 ]; assay type: functional
T5 sequence (Q9NZJ5 whole entry): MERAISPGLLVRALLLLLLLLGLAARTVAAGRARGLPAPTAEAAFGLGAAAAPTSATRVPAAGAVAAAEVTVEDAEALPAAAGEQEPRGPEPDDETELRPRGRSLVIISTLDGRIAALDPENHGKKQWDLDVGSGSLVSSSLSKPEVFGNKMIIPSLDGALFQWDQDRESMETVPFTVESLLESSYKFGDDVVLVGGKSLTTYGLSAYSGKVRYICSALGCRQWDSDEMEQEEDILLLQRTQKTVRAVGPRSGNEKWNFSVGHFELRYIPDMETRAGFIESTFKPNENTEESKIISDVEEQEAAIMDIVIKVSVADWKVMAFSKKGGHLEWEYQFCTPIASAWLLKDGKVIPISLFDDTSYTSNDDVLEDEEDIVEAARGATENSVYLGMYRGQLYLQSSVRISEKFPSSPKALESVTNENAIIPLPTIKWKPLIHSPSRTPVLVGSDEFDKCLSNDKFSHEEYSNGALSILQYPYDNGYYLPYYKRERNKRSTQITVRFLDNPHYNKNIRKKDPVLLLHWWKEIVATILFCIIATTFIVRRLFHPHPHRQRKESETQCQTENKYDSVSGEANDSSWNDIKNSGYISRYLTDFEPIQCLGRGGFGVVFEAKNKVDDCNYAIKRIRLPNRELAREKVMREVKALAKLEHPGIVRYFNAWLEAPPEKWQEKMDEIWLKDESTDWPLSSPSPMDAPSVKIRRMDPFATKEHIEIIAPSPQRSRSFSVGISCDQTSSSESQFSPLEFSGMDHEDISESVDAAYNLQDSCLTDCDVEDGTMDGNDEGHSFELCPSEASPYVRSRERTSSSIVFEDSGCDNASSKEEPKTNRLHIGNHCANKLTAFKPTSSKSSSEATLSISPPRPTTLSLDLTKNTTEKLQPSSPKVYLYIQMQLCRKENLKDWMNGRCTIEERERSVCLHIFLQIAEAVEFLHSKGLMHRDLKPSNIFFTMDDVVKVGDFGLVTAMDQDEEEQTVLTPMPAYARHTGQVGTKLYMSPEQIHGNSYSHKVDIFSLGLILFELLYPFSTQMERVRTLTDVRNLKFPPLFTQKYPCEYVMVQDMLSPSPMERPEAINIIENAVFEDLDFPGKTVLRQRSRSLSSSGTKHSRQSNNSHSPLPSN

[13] = target: T5, Eukaryotic translation initiation factor 2-alpha kinase 3; assay: Counterscreen assay for PERK inhibitors: Dose response cell-based high throughput screening assay to measure inhibition of PERK at 6 hours. [Related pubchem assays: 1522, 1416 ]; assay type: functional

SMILES: COc1ccc(Nc2nnc(SCc3cn4c(C)cccc4n3)s2)cc1
IC50 (Exodeoxyribonuclease V): > 119 µM (inactive) | IC50 [1]: > 119 µM (inactive)

SMILES: CCn1cc(C(=O)NCCc2ccccc2)c(=O)c2cc(F)c(N3CCN(C)CC3)cc21
IC50 (Exodeoxyribonuclease V): > 118 µM (inactive) | IC50 [1]: 27.1 µM (inactive)

SMILES: N#Cc1cccc(/N=c2\ssnc2Cl)c1
IC50 [5]: 11.3 µM (active) | IC50 [6]: 26.7 µM (active) | IC50 [7]: 10.9 µM (active) | IC50 [8]: > 100 µM (inactive) | IC50 [9]: 50 µM (inactive) | IC50 [10]: 7.4 µM (active)

SMILES: CC(=O)Oc1cc(C(C)C)c(OCCN(C)C)cc1C [MOXISYLYTE]
AC50 (Cytochrome P450 2D6 [11]): 10 µM (inconclusive) | AC50 (Cytochrome P450 2D6 [2]): 10 µM (inconclusive)

Continued, values first:

AC50 (Cytochrome P450 2D6 [2]): inconclusive
SMILES: CC(=O)N1c2ccc(S(=O)(=O)CCC(=O)O)cc2CC1C (stereo not given)

EC50 (Troponin, cardiac muscle): 24.4 µM (inactive)
SMILES: CCOC(=O)c1cc2n(c1N)-c1ccccc1C2=O

IC50 [3]: 20 µM (inactive) | IC50 [4]: > 20 µM (inactive)
SMILES: COc1ccc(Oc2c(-c3ccccc3)cnn(-c3ccc(C)cc3)c2=O)cc1

EC50 [12]: > 55.7 µM (not active) | EC50 [13]: > 55.7 µM (not active)
SMILES: C/N=C1\SC(CC(=O)Nc2ccccc2F)C(=O)N1C (stereo not given)

IC50 [5]: 35.6 µM (active) | IC50 [7]: 4.1 µM (active)
SMILES: Nc1ccc2[nH]c(-c3ccc(N)c(Cl)c3)nc2c1
